Results on 2 molecules are retold here after US20040197859A1, “Isolated dna molecules encoding humanized calcitonin gene-related peptide receptor, related non-human transgenic animals and assay methods” (priority 2001, published 2004).

In assay [1] the target is T1, rCRLR/rRAMP1 (native rat CGRP receptor) (Rattus norvegicus, UniProt Q63118+Q9JJ74).
T1 construct: expressed in transfected cells; host or cells: 293 EBNA cells, transient co-transfection, membranes
The assay is described as follows: competitive 125I-hCGRP binding, membranes expressing rCRLR/rRAMP1. As for the experimental part: (§1) Cell Culture and DNA Transfection—293 EBNA cells were cultured in DMEM with 4.5 g/L glucose, 1 mM sodium pyruvate and 2 mM glutamine supplemented with 10% Fetal Bovine Serum (FBS), 100 units/mL penicillin and 100 μg/mL streptomycin, and maintained at 37° C. and 95% humidity. Cells were subcultured by treatment with 0.25% trypsin with 0.1% EDTA in HBSS.
(§2) Twenty-four hours prior to transfection, the cells were seeded at 2.0×10^7/dish in 500 cm^2 dishes. The following day, the cells were re-fed with fresh growth medium 1 hour before transfection. Transfections were performed by combining 60 μg/dish DNA with 180 μg/dish Lipofectamine 2000 (Life Technologies). cDNA's for CRLR and RAMP1 in the mammalian expression vector pcDNA3.1 were co-transfected in equal amounts. The transfection cocktail was added directly to the medium and this mixture was replaced with fresh medium 24 hours later. The cells were harvested for membranes 48 hours post-transfection.
(§3) Membrane Preparation and Radioligand Binding Studies—Transiently transfected 293 EBNA cells were washed once with PBS and harvested in harvest buffer containing 50 mM HEPES, 1 mM EDTA and Complete protease inhibitors (Roche).

A further assay concerns the target T2, rCRLR/hRAMP1 (UniProt O60894+Q63118).
T2 construct: expressed in transfected cells; host or cells: 293 EBNA cells, transient co-transfection, membranes
In words: competitive 125I-hCGRP binding, membranes expressing hybrid rCRLR/hRAMP1. Set-up: species or system rat CRLR, human RAMP1. The conditions noted are these: Table 4. On the procedure: as §1
as §2, with “post-transfection. […]” for “post-transfection.”
For binding assays, 1.5-25 μg of membranes (dependent upon receptor expression levels) were incubated for 3 hours at room temperature in binding buffer (10 mM HEPES, 5 mM MgCl2, 0.2% BSA) containing 10 pM ^125I-hCGRP (Amersham) in a total volume of 1 mL. […] Data were analyzed by using GraphPad Prism.

A further assay has as its target T3, rCRLR/Chimera 1 (Rattus norvegicus, UniProt Q63118+Q9JJ74, D29E/D31N/E46V/G64R/I36L/I51V/K45Q/K53E/K61R/P30A/Q37R/R28Q/R43Q/S42T/T34A/T50A/V24T).
T3 construct: expressed in transfected cells; host or cells: 293 EBNA cells, transient co-transfection, membranes
In words: competitive 125I-hCGRP binding, membranes expressing rCRLR with RAMP1 Chimera 1. Further details: species or system rat CRLR, human/rat chimeric RAMP1. The conditions noted are these: Table 5; rCRLR/Chimera 1 (first 66 aa of rRAMP1 replaced with human). The text has this:
Two human/rat chimeric RAMP1 cDNAs were constructed by using restriction fragments of the corresponding native cDNAs. Chimera 1 was created by replacing the nucleotides coding for the first 66 amino acids of rRAMP1 with the corresponding nucleotides of hRAMP1 by using the BsgI restriction site along with a NheI site located in the cloning vector. Chimera 2 was created by replacing the nucleotides coding for the first 112 amino acids of rRAMP1 with the corresponding nucleotides of hRAMP1 by using the SanDI restriction site along with a NheI site located in the cloning vector. Cell Culture and DNA Transfection-293 EBNA cells were cultured in DMEM with 4.5 g/L glucose, 1 mM sodium pyruvate and 2 mM glutamine supplemented with 10% Fetal Bovine Serum (FBS), 100 units/mL penicillin and 100 μg/mL streptomycin, and maintained at 37° C. and 95% humidity. Cells were subcultured by treatment with 0.25% trypsin with 0.1% EDTA in HBSS. Twenty-four hours prior to transfection, the cells were seeded at 2.0×10^7/dish in 500 cm^2 dishes. The following day, the cells were re-fed with fresh growth medium 1 hour before transfection. Transfections were performed by combining 60 μg/dish DNA with 180 μg/dish Lipofectamine 2000 (Life Technologies). cDNA's for CRLR and RAMP1 in the mammalian expression vector pcDNA3.1 were co-transfected in equal amounts. […] Data were analyzed by using GraphPad Prism. […]

The target of the next assay is T4, rCRLR/rK74W RAMP1 (Rattus norvegicus, UniProt Q63118+Q9JJ74, K74W).
T4 construct: and the rRAMP1 expression vector construct as template; expressed in transfected cells; host or cells: 293 EBNA cells, transient co-transfection, membranes
The assay is described as follows: competitive 125I-hCGRP binding, membranes expressing rCRLR and mutant rK74W RAMP1. The conditions noted are these: Table 6. On the procedure: Rat RAMP1 site-directed mutagenesis was performed by using the Quick Change Site-directed Mutagenesis Kit (Stratagene) according to the manufacturer's instructions. […] of rRAMP1 was replaced with the corresponding human/marmoset amino acid tryptophan utilizing two complementary mutant oligonucleotide primers ([NT] ID NO:27] and [NT] ID NO:28]) and the rRAMP1 expression vector construct as template. This mutation was accomplished by substituting the codon TGG corresponding to tryptophan (r[…] RAMP1). All constructs were sequenced bidirectionally with 100% coverage in each direction. Cell Culture and DNA Transfection-293 EBNA cells were cultured in DMEM with 4.5 g/L glucose, 1 mM sodium pyruvate and 2 mM glutamine supplemented with 10% Fetal Bovine Serum (FBS), 100 units/mL penicillin and 100 μg/mL streptomycin, and maintained at 37° C. and 95% humidity. Cells were subcultured by treatment with 0.25% trypsin with 0.1% EDTA in HBSS. Twenty-four hours prior to transfection, the cells were seeded at 2.0×10^7/dish in 500 cm^2 dishes. The following day, the cells were re-fed with fresh growth medium 1 hour before transfection. Transfections were performed by combining 60 μg/dish DNA with 180 μg/dish Lipofectamine 2000 (Life Technologies). cDNA's for CRLR and RAMP1 in the mammalian expression vector pcDNA3.1 were co-transfected in equal amounts. […] Data were analyzed by using GraphPad Prism. […]

Assay [2] concerns the target T5, mCRLR/mRAMP1 (native mouse receptor) (Mus musculus, UniProt Q9R1W5+Q9WTJ5).
T5 construct: expressed in transfected cells
In words: competitive binding, membranes expressing mCRLR/mRAMP1. The conditions noted are these: Table 7. On the procedure:
as §1, §2, §3

The next assay has as its target T6, mCRLR/mK74W RAMP1 (Mus musculus, UniProt Q9R1W5+Q9WTJ5, K74W).
T6 construct: The mouse RAMP1 expression vector construct was used as template; expressed in transfected cells
The assay is described as follows: competitive binding, membranes expressing mCRLR and mutant mK74W RAMP1. The settings on record: Table 7. On the procedure:
as §1, §2, §3

A further assay deals with human CGRP receptor (Homo sapiens, UniProt O60894+Q16602). The settings on record: cited from earlier work.
In the next assay the target is rCRLR/rRAMP1 (rat) (UniProt Q63118). In words: competitive radioligand binding against 10 pM 125I-hCGRP, membranes of transfected 293 EBNA cells.

By IC50 is commonly meant the concentration that inhibits the measured activity by half. Low values mean inhibition by little substance, high ones a need for much substance. For the molecule `NCCCC[C@H](NC(=O)[C@@H](Cc1cc(Br)c(O)c(Br)c1)NC(=O)N1CCC(N2Cc3ccccc3NC2=O)CC1)C(=O)N1CCN(c2ccncc2)CC1` [BIBN4096BS], the IC50 in assay [1] (Table 4) amounted to 6.9 nM; in assay [1] (Table 6) it was 5.5 nM; at rCRLR/hRAMP1 it was 0.41 nM; on rCRLR/Chimera 1, 4.8 nM; on rCRLR/rK74W RAMP1, 0.08 nM; in assay [2], 8.5 nM. At mCRLR/mK74W RAMP1, the IC50 was 0.1 nM. Also, the “higher affinity for the human CGRP receptor than for the rat receptor” value on human CGRP receptor (human vs rat, Doods et al.) is listed as 200 fold. Besides, the “lower affinity for CGRP receptors from rat, rabbit, dog, and guinea pig” value at human CGRP receptor (versus human CGRP receptor, Doods et al. 2000) is reported as 200 fold.

With CGRP8-37 (peptide), in the assay with rCRLR/rRAMP1 (rat), the IC50 came to 2 nM.
